# Reference: ChEMBL document CHEMBL1201862, “PubChem BioAssay data set” (2004)
#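 Briefly, cells in 96-well plates were exposed to five compound concentrations for 48 h, and endpoints were estimated by linear interpolation. GI50 = concentration required for 50% inhibition of growth.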 Activity calls are given as the source filed them. Rule as the data show it: active = GI50 up to about 1.1 µM and inactive = higher.
# Columns and labels:
# Assay in all cases: growth of human tumour cells (NCI), 48 h
# [1] = system: 786-0
# [2] = system: A498
# [3] = system: CCRF-CEM
# [4] = system: EKVX
# [5] = system: HCC 2998
# [6] = system: HOP-62
# [7] = system: Hs-578T
# [8] = system: LOX IMVI
# [9] = system: MCF7
# [10] = system: MDA-MB-231
# [11] = system: NCI-H460
# [12] = system: OVCAR-5
# [13] = system: RPMI-8226
# [14] = system: SF-539
# [15] = system: SK-MEL-2
# [16] = system: SN12C
# [17] = system: SNB-19
# [18] = system: T47D
# [19] = system: U-251
# [20] = system: UO-31
Compound,GI50 [1],GI50 [2],GI50 [3],GI50 [4],GI50 [5],GI50 [6],GI50 [7],GI50 [8],GI50 [9],GI50 [10],GI50 [11],GI50 [12],GI50 [13],GI50 [14],GI50 [15],GI50 [16],GI50 [17],GI50 [18],GI50 [19],GI50 [20]
O=[N+]([O-])/C(Cl)=C(\Nc1ccccc1)C(Cl)=C(Cl)Cl,27.5 µM (inactive),30.8 µM (inactive),12.7 µM (inactive),39.8 µM (inactive),37.5 µM (inactive),29 µM (inactive),34.3 µM (inactive),32.9 µM (inactive),14.3 µM (inactive),34.4 µM (inactive),39.4 µM (inactive),40.8 µM (inactive),25.6 µM (inactive),27.9 µM (inactive),28.8 µM (inactive),33.9 µM (inactive),33.5 µM (inactive),29.1 µM (inactive),43.1 µM (inactive),40.7 µM (inactive)
O=C1OC(c2ccccc2)N(C(=O)c2ccccc2)C1Cc1ccc(OCc2ccccc2)cc1 (stereo not given),33.1 µM (inactive),4.67 µM (inactive),> 100 µM (inactive),9.57 µM (inactive),21.8 µM (inactive),9.42 µM (inactive),35.6 µM (inactive),8.11 µM (inactive),5.48 µM (inactive),2.6 µM (inactive),60 µM (inactive),> 100 µM (inactive),87.5 µM (inactive),> 100 µM (inactive),31.1 µM (inactive),> 100 µM (inactive),> 100 µM (inactive),> 100 µM (inactive),> 100 µM (inactive),21.1 µM (inactive)
CC(C)Cn1cnc2c(Cl)nc3ccccc3c21,80.2 µM (inactive),33.9 µM (inactive),53.2 µM (inactive),16.6 µM (inactive),73.3 µM (inactive),> 100 µM (inactive),27.7 µM (inactive),35.5 µM (inactive),47.9 µM (inactive),41.5 µM (inactive),54.2 µM (inactive),54.7 µM (inactive),42.9 µM (inactive),46.3 µM (inactive),> 100 µM (inactive),70.6 µM (inactive),> 100 µM (inactive),77.1 µM (inactive),65.9 µM (inactive),18.5 µM (inactive)
CC(C)Oc1c(N(Cc2ccccc2)c2ccccc2C2SCCCS2)c(=O)c1=O,4.41 µM (inactive),6.9 µM (inactive),5.87 µM (inactive),4.51 µM (inactive),3.5 µM (inactive),3.96 µM (inactive),3.44 µM (inactive),5.56 µM (inactive),4.16 µM (inactive),5.08 µM (inactive),3.69 µM (inactive),5.97 µM (inactive),4.24 µM (inactive),2.76 µM (inactive),3.32 µM (inactive),6.17 µM (inactive),3.9 µM (inactive),5.14 µM (inactive),4.4 µM (inactive),6.67 µM (inactive)
CC1OC(OC2C(O[C@H]3CC[C@@]4(C)C(=CC[C@H]5[C@@H]6C[C@@H]7O[C@]8(CC[C@@H](C)CO8)[C@@H](C)[C@@H]7[C@@]6(C)CC[C@@H]54)C3)OC(CO)C(OC3OC(CO)C(O)C3O)C2O)C(O)C(O)C1O (stereo not given in full),0.673 µM (active),0.881 µM (active),0.16 µM (active),0.885 µM (active),0.366 µM (active),0.897 µM (active),0.805 µM (active),0.521 µM (active),0.774 µM (active),0.8 µM (active),0.438 µM (active),0.8 µM (active),0.724 µM (active),0.644 µM (active),1.01 µM (active),0.571 µM (active),0.762 µM (active),1.12 µM (active),0.619 µM (active),0.798 µM (active)
Nc1ncnc2c1ncc(=O)n2C1CC(O)C(CO)O1 (stereo not given),> 100 µM (inactive),> 100 µM (inactive),> 100 µM (inactive),> 100 µM (inactive),> 100 µM (inactive),> 100 µM (inactive),> 100 µM (inactive),> 100 µM (inactive),> 100 µM (inactive),> 100 µM (inactive),> 100 µM (inactive),> 100 µM (inactive),> 100 µM (inactive),> 100 µM (inactive),> 100 µM (inactive),> 100 µM (inactive),> 100 µM (inactive),> 100 µM (inactive),> 100 µM (inactive),> 100 µM (inactive)
O=C1Nc2ccc(Br)cc2/C1=N/c1ccc2c(c1)OCO2,21.6 µM (inactive),30.6 µM (inactive),14.7 µM (inactive),25.8 µM (inactive),15.7 µM (inactive),20.2 µM (inactive),30.5 µM (inactive),23.1 µM (inactive),16.7 µM (inactive),19 µM (inactive),22.5 µM (inactive),22.8 µM (inactive),18.5 µM (inactive),18.5 µM (inactive),17.7 µM (inactive),19 µM (inactive),74.5 µM (inactive),35.9 µM (inactive),12.7 µM (inactive),19.1 µM (inactive)
COC(=O)[C@H](Cc1ccccc1)NC(=O)c1ccc(CNC(=O)/C=C/c2csc(-c3ccccc3)n2)cc1,4.88 µM (inactive),16.1 µM (inactive),3.89 µM (inactive),15.2 µM (inactive),3.91 µM (inactive),15.3 µM (inactive),3.21 µM (inactive),4.91 µM (inactive),4.5 µM (inactive),10.9 µM (inactive),11.8 µM (inactive),38.5 µM (inactive),7.74 µM (inactive),2.04 µM (inactive),2.81 µM (inactive),8.91 µM (inactive),11.8 µM (inactive),2.72 µM (inactive),8.11 µM (inactive),8.2 µM (inactive)
COC(=O)C(Cc1ccc2c(c1)CCCC2)Cc1cc2c(cc1C(O)OC)CCC2 (stereo not given),33.3 µM (inactive),> 100 µM (inactive),58.9 µM (inactive),39.4 µM (inactive),57.9 µM (inactive),> 100 µM (inactive),57.9 µM (inactive),30.4 µM (inactive),29.4 µM (inactive),> 100 µM (inactive),35.8 µM (inactive),80.9 µM (inactive),27.9 µM (inactive),39.1 µM (inactive),> 100 µM (inactive),96.2 µM (inactive),> 100 µM (inactive),29.3 µM (inactive),49.4 µM (inactive),93.8 µM (inactive)
CCOC(=O)c1cc2cc([N+](=O)[O-])ccc2oc1=O,> 100 µM (inactive),> 100 µM (inactive),> 100 µM (inactive),> 100 µM (inactive),58.6 µM (inactive),> 100 µM (inactive),> 100 µM (inactive),> 100 µM (inactive),62.1 µM (inactive),> 100 µM (inactive),69.5 µM (inactive),> 100 µM (inactive),> 100 µM (inactive),> 100 µM (inactive),> 10 µM (inactive),> 100 µM (inactive),> 100 µM (inactive),> 100 µM (inactive),> 100 µM (inactive),35.6 µM (inactive)
CC1=NN(c2ccccc2)C(=O)/C1=C1\SC(c2ccccc2)(c2ccccc2)c2ccccc21,> 100 µM (inactive),> 100 µM (inactive),> 100 µM (inactive),> 100 µM (inactive),> 100 µM (inactive),> 100 µM (inactive),> 100 µM (inactive),> 100 µM (inactive),> 100 µM (inactive),> 100 µM (inactive),> 100 µM (inactive),> 100 µM (inactive),> 100 µM (inactive),> 100 µM (inactive),> 100 µM (inactive),> 100 µM (inactive),> 100 µM (inactive),> 100 µM (inactive),3.78 µM (inactive),> 100 µM (inactive)
C=C1C(=O)OC2CC(=C)C3CC=C(C)C3CC12 (stereo not given),15.7 µM (inactive),53.6 µM (inactive),8.24 µM (inactive),64.6 µM (inactive),21.1 µM (inactive),47 µM (inactive),44.7 µM (inactive),11.1 µM (inactive),20.1 µM (inactive),21.5 µM (inactive),28.8 µM (inactive),46.7 µM (inactive),14.2 µM (inactive),38.1 µM (inactive),11.7 µM (inactive),16.2 µM (inactive),22.9 µM (inactive),14.3 µM (inactive),15.3 µM (inactive),15.9 µM (inactive)
C/C=C(/C)C(=O)O[C@H]1CCN2CC=C(COC(=O)[C@@](O)([C@H](C)OC)C(C)(C)O)[C@H]12,> 100 µM (inactive),> 100 µM (inactive),> 100 µM (inactive),> 100 µM (inactive),> 100 µM (inactive),> 100 µM (inactive),> 100 µM (inactive),> 100 µM (inactive),> 100 µM (inactive),> 100 µM (inactive),> 10 µM (inactive),> 100 µM (inactive),> 100 µM (inactive),> 100 µM (inactive),> 100 µM (inactive),> 100 µM (inactive),> 100 µM (inactive),> 100 µM (inactive),> 100 µM (inactive),> 100 µM (inactive)
O=C1/C(=C/c2ccc(Cl)cc2)N=C(c2ccccc2)N1c1nc2c(Cl)cc(Cl)cc2s1,31.8 µM (inactive),18.2 µM (inactive),3.45 µM (inactive),14.3 µM (inactive),40.2 µM (inactive),22 µM (inactive),31.5 µM (inactive),22.4 µM (inactive),23.9 µM (inactive),30.5 µM (inactive),28.6 µM (inactive),35.2 µM (inactive),12.5 µM (inactive),22.3 µM (inactive),20.8 µM (inactive),23.1 µM (inactive),34.8 µM (inactive),25.1 µM (inactive),19.7 µM (inactive),25.8 µM (inactive)
